Measured values published in PubChem BioAssay (NCI).
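GI50 is the concentration that inhibits growth by half. TGI is the concentration that stops growth completely.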

Experiments:
Experiment in all cases: growth of human tumour cells (NCI), 384-well format
786-0 renal = tested on: 786-0 renal
A498 renal = tested on: A498 renal
A549 NSCLC = tested on: A549 NSCLC
ACHN renal = tested on: ACHN renal
BT-549 breast = tested on: BT-549 breast
CAKI-1 renal = tested on: CAKI-1 renal
CCRF-CEM leukemia = tested on: CCRF-CEM leukemia
COLO 205 colon = tested on: COLO 205 colon
DU-145 prostate = tested on: DU-145 prostate
EKVX NSCLC = tested on: EKVX NSCLC
HCC-2998 colon = tested on: HCC-2998 colon
HCT-116 colon = tested on: HCT-116 colon
HCT-15 colon = tested on: HCT-15 colon
HL-60(TB) leukemia = tested on: HL-60(TB) leukemia
HOP-62 NSCLC = tested on: HOP-62 NSCLC
HOP-92 NSCLC = tested on: HOP-92 NSCLC
HS 578T breast = tested on: HS 578T breast
HT29 colon = tested on: HT29 colon
IGROV1 ovarian = tested on: IGROV1 ovarian
KM12 colon = tested on: KM12 colon
LOX IMVI melanoma = tested on: LOX IMVI melanoma
M14 melanoma = tested on: M14 melanoma
MALME-3M melanoma = tested on: MALME-3M melanoma
MDA-MB-435 melanoma = tested on: MDA-MB-435 melanoma
MDA-MB-468 breast = tested on: MDA-MB-468 breast
MOLT-4 leukemia = tested on: MOLT-4 leukemia
NCI-H226 lung = tested on: NCI-H226 lung
NCI-H23 lung = tested on: NCI-H23 lung
NCI-H322M lung = tested on: NCI-H322M lung
NCI-H460 NSCLC = tested on: NCI-H460 NSCLC
NCI-H522 lung = tested on: NCI-H522 lung
NCI/ADR-RES ovarian = tested on: NCI/ADR-RES ovarian
OVCAR-3 ovarian = tested on: OVCAR-3 ovarian
OVCAR-4 ovarian = tested on: OVCAR-4 ovarian
OVCAR-5 ovarian = tested on: OVCAR-5 ovarian
OVCAR-8 ovarian = tested on: OVCAR-8 ovarian
PC-3 prostate = tested on: PC-3 prostate
RPMI-8226 leukemia = tested on: RPMI-8226 leukemia
RXF 393 renal = tested on: RXF 393 renal
SF-268 CNS = tested on: SF-268 CNS
SF-295 CNS = tested on: SF-295 CNS
SF-539 CNS = tested on: SF-539 CNS
SK-MEL-28 melanoma = tested on: SK-MEL-28 melanoma
SK-MEL-5 melanoma = tested on: SK-MEL-5 melanoma
SK-OV-3 ovarian = tested on: SK-OV-3 ovarian
SN12C renal = tested on: SN12C renal
SNB-19 CNS = tested on: SNB-19 CNS
SNB-75 CNS = tested on: SNB-75 CNS
SW-620 colon = tested on: SW-620 colon
T-47D breast = tested on: T-47D breast
TK-10 renal = tested on: TK-10 renal
U251 glioblastoma = tested on: U251 glioblastoma
UACC-257 melanoma = tested on: UACC-257 melanoma
UACC-62 melanoma = tested on: UACC-62 melanoma
UO-31 renal = tested on: UO-31 renal

Cc1cc(Cl)cc(OCCn2cc(F)cn2)c1-c1nc(N)nc2c1CN(C(=O)NCC(C)(F)F)C2
GI50 (786-0 renal): 59.3 nM
TGI (786-0 renal): 5810 nM
GI50 (A498 renal): 149 nM
TGI (A498 renal): > 100000 nM
GI50 (A549 NSCLC): 45.6 nM
TGI (A549 NSCLC): > 100000 nM
GI50 (ACHN renal): 389 nM
TGI (ACHN renal): > 100000 nM
GI50 (BT-549 breast): 36.3 nM
TGI (BT-549 breast): 769 nM
GI50 (CAKI-1 renal): 163 nM
TGI (CAKI-1 renal): > 100000 nM
GI50 (CCRF-CEM leukemia): 29.1 nM
TGI (CCRF-CEM leukemia): 94.1 nM
GI50 (COLO 205 colon): 30.6 nM
TGI (COLO 205 colon): 136 nM
GI50 (DU-145 prostate): 40.5 nM
TGI (DU-145 prostate): 1750 nM
GI50 (EKVX NSCLC): 90.2 nM
TGI (EKVX NSCLC): 31100 nM
GI50 (HCC-2998 colon): 21.5 nM
TGI (HCC-2998 colon): 71.4 nM
GI50 (HCT-116 colon): 68.5 nM
TGI (HCT-116 colon): 18200 nM
GI50 (HCT-15 colon): 339 nM
TGI (HCT-15 colon): > 100000 nM
GI50 (HL-60(TB) leukemia): 32.5 nM
TGI (HL-60(TB) leukemia): 71.2 nM
GI50 (HOP-62 NSCLC): 65.1 nM
TGI (HOP-62 NSCLC): > 100000 nM
GI50 (HOP-92 NSCLC): 73.3 nM
TGI (HOP-92 NSCLC): 279 nM
GI50 (HS 578T breast): 46.8 nM
TGI (HS 578T breast): 302 nM
GI50 (HT29 colon): 35 nM
TGI (HT29 colon): 16800 nM
GI50 (IGROV1 ovarian): 40.2 nM
TGI (IGROV1 ovarian): 443 nM
GI50 (KM12 colon): 37.3 nM
TGI (KM12 colon): 802 nM
GI50 (LOX IMVI melanoma): 35.7 nM
TGI (LOX IMVI melanoma): 129 nM
GI50 (M14 melanoma): 40.8 nM
TGI (M14 melanoma): > 100000 nM
GI50 (MALME-3M melanoma): 30.7 nM
TGI (MALME-3M melanoma): 85.2 nM
GI50 (MDA-MB-435 melanoma): 83.1 nM
TGI (MDA-MB-435 melanoma): > 100000 nM
GI50 (MDA-MB-468 breast): 34 nM
TGI (MDA-MB-468 breast): 76 nM
GI50 (MOLT-4 leukemia): 17.5 nM
TGI (MOLT-4 leukemia): 34.7 nM
GI50 (NCI-H226 lung): 174 nM
TGI (NCI-H226 lung): 842 nM
GI50 (NCI-H23 lung): 32.1 nM
TGI (NCI-H23 lung): 95.4 nM
GI50 (NCI-H322M lung): 136 nM
TGI (NCI-H322M lung): > 100000 nM
GI50 (NCI-H460 NSCLC): 34.2 nM
TGI (NCI-H460 NSCLC): 106 nM
GI50 (NCI-H522 lung): 23.9 nM
TGI (NCI-H522 lung): 45.7 nM
GI50 (NCI/ADR-RES ovarian): 5110 nM
TGI (NCI/ADR-RES ovarian): 63000 nM
GI50 (OVCAR-3 ovarian): 41.6 nM
TGI (OVCAR-3 ovarian): 939 nM
GI50 (OVCAR-4 ovarian): > 100000 nM
TGI (OVCAR-4 ovarian): > 100000 nM
GI50 (OVCAR-5 ovarian): 115 nM
TGI (OVCAR-5 ovarian): > 100000 nM
GI50 (OVCAR-8 ovarian): 43.1 nM
TGI (OVCAR-8 ovarian): 181 nM
GI50 (PC-3 prostate): 86.7 nM
TGI (PC-3 prostate): 533 nM
GI50 (RPMI-8226 leukemia): 57 nM
TGI (RPMI-8226 leukemia): 305 nM
GI50 (RXF 393 renal): 41.3 nM
TGI (RXF 393 renal): 842 nM
GI50 (SF-268 CNS): 24 nM
TGI (SF-268 CNS): 63.2 nM
GI50 (SF-295 CNS): 58.9 nM
TGI (SF-295 CNS): 230 nM
GI50 (SF-539 CNS): 26.1 nM
TGI (SF-539 CNS): 62.8 nM
GI50 (SK-MEL-28 melanoma): 71.5 nM
TGI (SK-MEL-28 melanoma): > 100000 nM
GI50 (SK-MEL-5 melanoma): 47.2 nM
TGI (SK-MEL-5 melanoma): > 100000 nM
GI50 (SK-OV-3 ovarian): 121 nM
TGI (SK-OV-3 ovarian): > 100000 nM
GI50 (SN12C renal): 51.6 nM
TGI (SN12C renal): 316 nM
GI50 (SNB-19 CNS): 122 nM
TGI (SNB-19 CNS): 24400 nM
GI50 (SNB-75 CNS): 152 nM
TGI (SNB-75 CNS): 664 nM
GI50 (SW-620 colon): 38.5 nM
TGI (SW-620 colon): 268 nM
GI50 (T-47D breast): 43.8 nM
TGI (T-47D breast): 307 nM
GI50 (TK-10 renal): 275 nM
TGI (TK-10 renal): 12700 nM
GI50 (U251 glioblastoma): 37.9 nM
TGI (U251 glioblastoma): 130 nM
GI50 (UACC-257 melanoma): 394 nM
TGI (UACC-257 melanoma): > 100000 nM
GI50 (UACC-62 melanoma): 54.3 nM
TGI (UACC-62 melanoma): 300 nM
GI50 (UO-31 renal): 394 nM
TGI (UO-31 renal): 56100 nM
